Results on 13 compounds are retold here after ChEMBL document CHEMBL1134860, “Novel thiophene derivatives for the treatment of benign prostatic hyperplasia” (Bioorg Med Chem Lett, 2002).

The target of assay [1] is T1, Alpha-1B adrenergic receptor (Homo sapiens, UniProt P35368).
T1 sequence (P35368 whole entry): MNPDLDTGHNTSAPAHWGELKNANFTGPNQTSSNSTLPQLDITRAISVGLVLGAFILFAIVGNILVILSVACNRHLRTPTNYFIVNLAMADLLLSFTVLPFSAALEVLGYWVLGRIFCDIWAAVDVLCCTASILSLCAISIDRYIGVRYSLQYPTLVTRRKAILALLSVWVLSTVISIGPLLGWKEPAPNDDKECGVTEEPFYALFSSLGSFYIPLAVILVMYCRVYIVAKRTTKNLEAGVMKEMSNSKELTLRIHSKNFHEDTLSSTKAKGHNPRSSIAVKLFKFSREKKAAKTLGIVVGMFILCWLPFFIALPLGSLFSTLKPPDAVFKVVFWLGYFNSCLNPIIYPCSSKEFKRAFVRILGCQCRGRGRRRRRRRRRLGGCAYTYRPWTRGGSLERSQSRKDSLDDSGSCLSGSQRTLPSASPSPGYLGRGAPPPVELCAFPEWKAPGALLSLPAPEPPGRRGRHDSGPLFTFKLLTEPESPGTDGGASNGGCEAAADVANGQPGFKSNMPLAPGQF
In words: Displacement of [125I]HEAT from COS cells membranes expressing human Alpha-1B adrenergic receptor. Format: cell membranes.

For assay [2], the target named is Adrenergic receptors; alpha-1 A & B (Homo sapiens) (UniProt P35348+P35368). In words: Relative binding to alpha-1b and alpha-1a receptors (ratio of Ki). Format: protein assay.
The target in assay [3] is T2, Alpha-1A adrenergic receptor (Homo sapiens, UniProt P35348).
T2 sequence (P35348 whole entry): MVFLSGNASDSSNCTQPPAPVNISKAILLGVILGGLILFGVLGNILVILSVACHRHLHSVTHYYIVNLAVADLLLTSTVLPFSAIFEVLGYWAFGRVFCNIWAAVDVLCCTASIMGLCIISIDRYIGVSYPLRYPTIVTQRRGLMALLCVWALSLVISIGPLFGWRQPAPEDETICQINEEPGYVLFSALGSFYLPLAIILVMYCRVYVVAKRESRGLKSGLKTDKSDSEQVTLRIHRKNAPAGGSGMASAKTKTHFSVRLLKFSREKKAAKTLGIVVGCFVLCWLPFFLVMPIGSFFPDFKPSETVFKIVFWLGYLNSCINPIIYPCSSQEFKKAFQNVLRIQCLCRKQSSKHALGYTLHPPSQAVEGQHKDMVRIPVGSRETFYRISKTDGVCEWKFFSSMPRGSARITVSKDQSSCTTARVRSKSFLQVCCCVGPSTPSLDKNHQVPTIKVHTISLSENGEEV
In words: Displacement of [125I]HEAT from COS cell membranes expressing human Alpha-1A adrenergic receptor.

In assay [4] the target is T3, Alpha-1D adrenergic receptor (Homo sapiens, UniProt P25100).
T3 sequence (P25100 whole entry): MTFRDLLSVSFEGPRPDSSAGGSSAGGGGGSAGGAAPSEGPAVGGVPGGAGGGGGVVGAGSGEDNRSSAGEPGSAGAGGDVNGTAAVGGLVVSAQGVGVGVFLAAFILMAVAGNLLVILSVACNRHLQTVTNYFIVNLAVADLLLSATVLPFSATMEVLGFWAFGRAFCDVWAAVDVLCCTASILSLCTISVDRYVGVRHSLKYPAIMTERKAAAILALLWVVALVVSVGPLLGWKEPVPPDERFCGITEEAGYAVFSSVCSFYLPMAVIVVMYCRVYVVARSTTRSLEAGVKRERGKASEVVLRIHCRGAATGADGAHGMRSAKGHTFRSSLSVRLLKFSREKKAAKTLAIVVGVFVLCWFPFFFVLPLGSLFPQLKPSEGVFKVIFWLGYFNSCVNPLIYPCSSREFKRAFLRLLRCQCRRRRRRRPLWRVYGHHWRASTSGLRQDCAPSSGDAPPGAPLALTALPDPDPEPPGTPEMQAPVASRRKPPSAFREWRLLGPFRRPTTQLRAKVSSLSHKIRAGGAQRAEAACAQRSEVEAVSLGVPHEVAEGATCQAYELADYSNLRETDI
In words: Displacement of [125I]-HEAT from human Alpha-1D adrenergic receptor expressed in COS cells membranes. Format: cell membranes.

Assay [5] addresses Alpha adrenergic receptor (1a and 1d) (Homo sapiens) (UniProt P35348+P25100). As to the kind of experiment: Relative binding to alpha1d and alpha-1a receptors (ratio of Ki). In kind it is protein assay.

The structures appear in SMILES notation.

As to `COc1ccccc1N1CCN(Cc2ccc(Br)s2)CC1`, the Ki in assay [1] is 757 nM; in assay [3] it was 128 nM; in assay [4], 92 nM. In addition, the Ratio stood at 6 in assay [2] and 0.7 in assay [5].
Consider `COc1ccccc1N1CCN(Cc2ccc(C=O)s2)CC1`, for which the Ki worked out at 1880 nM in assay [1], 578 nM in assay [3] and 262 nM in assay [4]. Moreover, the Ratio in assay [2] turned out to be 3.2; in assay [5] it was 0.4.
Taken in the same sequence, the figures for `CC(C)Oc1ccccc1N1CCN(Cc2ccc(CN3CCCCC3=O)s2)CC1` were 413 nM, 0.3 nM, 18 nM, 1250 and 54.
The matching figures for `COC(=O)[C@@H]1CCCN1Cc1ccc(CN2CCN(c3ccccc3OC)CC2)s1`: 592 nM, 12 nM, 15 nM, 49 and 1.3.
With `CC(C)Oc1ccccc1N1CCN(Cc2cc(CO)cs2)CC1`, the Ki was more than 5000 nM in assay [1], 331 nM in assay [3] and 339 nM in assay [4]. Further, the Ratio in assay [2] was more than 15; in assay [5], 1.
`COc1ccccc1N1CCN(Cc2ccc(CN3CCCCC3=O)s2)CC1`: the Ki is more than 5000 nM in assay [1], 14 nM in assay [3] and 12 nM in assay [4]. Also, the results for the Ratio in assay [2] and in assay [5] were more than 357 and 0.9, respectively.
Taken in the same sequence, the figures for `COc1ccccc1N1CCN(Cc2ccc(CN3CCCCC3O)s2)CC1` (stereo not given) were 2570 nM, 419 nM, 130 nM, 6.1 and 0.3.
With `COc1ccccc1N1CCN(Cc2ccc(CN3CCCC3=O)s2)CC1`, the Ki in assay [1] was more than 5000 nM; in assay [3], 40 nM; in assay [4], 23 nM. The figures for the Ratio in assay [2] and in assay [5] were more than 125 and 0.6, respectively.
Taken in the same sequence, the figures for `COc1ccccc1N1CCN(Cc2ccc(CN3CCCCCC3=O)s2)CC1` were more than 5000 nM, 18 nM, 13 nM, more than 278 and 0.7.
Taken in the same sequence, the figures for `CC(C)Oc1ccccc1N1CCN(Cc2cc(CN3CCCCCC3=O)cs2)CC1` were 615 nM, 1.8 nM, 47 nM, 342 and 26.
Taken in the same sequence, the figures for `CC(C)Oc1ccccc1N1CCN(Cc2cc(CN3CCCC3=O)cs2)CC1` were 259 nM, 0.2 nM, 25 nM, 1520 and 147.
In the case of `CC(C)Oc1ccccc1N1CCN(Cc2cc(CN3CCCCC3=O)cs2)CC1`, the Ki in assay [1] came to 384 nM; in assay [3], 0.5 nM; in assay [4] it was 92 nM. Moreover, the Ratio in assay [2] came out at 769; in assay [5], 184.
In the case of `COc1ccccc1N1CCN(Cc2ccc(CO)s2)CC1`, the Ki in assay [1] stood at 1060 nM; in assay [3], 202 nM; in assay [4], 138 nM. Besides, the values for the Ratio in assay [2] and in assay [5] were 5.3 and 0.7, respectively.
